Results: patent US20110195929A1, “COMPOUNDS FOR THE TREATMENT OF FLAVIVIRAL INFECTIONS” (SUMMIT CORPORATION PLC, priority 2008, published 2011)

Assays:
[1] = test system: β-D-galactosidase; experiment: Glycosidase inhibition: β-D-galactosidase; assay type: biochemical, Bovine liver; details: 1 mg/ml; pH 7.3, 20° C
Protocol: (§1) Inhibition of the N-linked glycan trimming enzymes alpha-Glucosidases I and II or alpha-Mannosidases I and II are thought to be related to the anti-viral activity of castanospermine (Compound 104) and 1-deoxynojirimycin (Compound 193). […] All enzymes were purchased from Sigma, as were the appropriate p-nitrophenyl substrates. Assays were carried out in microtitre plates. Enzymes were assayed in 0.1M citric acid/0.2M di-sodium hydrogen phosphate (McIlvaine) buffers at the optimum pH for the enzyme. All assays were carried out at 20° C. For screening assays the incubation assay consisted of 10 μl of enzyme solution, 10 μl of inhibitor solution (made up in water at 5 mM) and 50 μl of the appropriate 5 mM p-nitrophenyl substrate (3.57 mM final conc.) made up in McIlvaine buffer at the optimum pH for the enzyme.
(§2) The reactions were stopped with 0.4M glycine (pH 10.4) during the exponential phase of the reaction, which was determined at the beginning of the assay using blanks with water, which were incubated for a range of time periods to measure the reaction rate using 5 mM substrate solution. Endpoint absorbances were read at 405 nm with a Bio-rad microtitre plate reader (Benchmark). Water was substituted for the inhibitors in the blanks.

[2] = target: T1, α-D-glucosidase (Saccharomyces cerevisiae, UniProt P53341); experiment: Glycosidase inhibition: α-D-glucosidase (yeast); assay type: biochemical, Saccharomyces cerevisiae (Baker's yeast); details: 1 mg/ml; pH 6.0, 20° C
T1 construct: purchased Sigma
Protocol: as §1, §2

[3] = target: T2, α-D-galactosidase (Coffea arabica, UniProt Q42656); experiment: Glycosidase inhibition: α-D-galactosidase; assay type: biochemical, Green coffee beans (Coffea sp.); details: 1 mg/ml; pH 6.5, 20° C
T2 construct: purchased Sigma
Protocol: as §1, §2

[4] = test system: α-D-glucosidase; experiment: Glycosidase inhibition: α-D-glucosidase (Bacillus); assay type: biochemical, Bacillus stearothermophilus; details: 1 mg/ml; pH 6.0, 20° C
Protocol: as §1, §2

[5] = test system: Naringinase; experiment: Glycosidase inhibition: Naringinase; assay type: biochemical, Penecillium decumbens; details: 1 mg/ml; pH 4.0, 20° C
Protocol: as §1, §2

[6] = test system: N-acetyl-β-D-glucosaminidase; experiment: Glycosidase inhibition: N-acetyl-β-D-glucosaminidase; assay type: biochemical, Bovine kidney; details: 1 mg/ml; pH 4.25, 20° C
Protocol: as §1, §2

[7] = target: T3, α-D-glucosidase (Oryza sativa subsp. japonica, UniProt Q653V7); experiment: Glycosidase inhibition: α-D-glucosidase (rice); assay type: biochemical, rice (Oryza sativa); details: 1 mg/ml; pH 6.0, 20° C
T3 construct: purchased Sigma
Protocol: as §1, §2

[8] = target: T4, α-D-mannosidase (Canavalia ensiformis, UniProt C0HJB3); experiment: Glycosidase inhibition: α-D-mannosidase; assay type: biochemical, Jack beans (Canavalia ensiformis); details: 1 mg/ml; pH 4.5, 20° C
T4 construct: purchased Sigma
T4 sequence (C0HJB3 1-981): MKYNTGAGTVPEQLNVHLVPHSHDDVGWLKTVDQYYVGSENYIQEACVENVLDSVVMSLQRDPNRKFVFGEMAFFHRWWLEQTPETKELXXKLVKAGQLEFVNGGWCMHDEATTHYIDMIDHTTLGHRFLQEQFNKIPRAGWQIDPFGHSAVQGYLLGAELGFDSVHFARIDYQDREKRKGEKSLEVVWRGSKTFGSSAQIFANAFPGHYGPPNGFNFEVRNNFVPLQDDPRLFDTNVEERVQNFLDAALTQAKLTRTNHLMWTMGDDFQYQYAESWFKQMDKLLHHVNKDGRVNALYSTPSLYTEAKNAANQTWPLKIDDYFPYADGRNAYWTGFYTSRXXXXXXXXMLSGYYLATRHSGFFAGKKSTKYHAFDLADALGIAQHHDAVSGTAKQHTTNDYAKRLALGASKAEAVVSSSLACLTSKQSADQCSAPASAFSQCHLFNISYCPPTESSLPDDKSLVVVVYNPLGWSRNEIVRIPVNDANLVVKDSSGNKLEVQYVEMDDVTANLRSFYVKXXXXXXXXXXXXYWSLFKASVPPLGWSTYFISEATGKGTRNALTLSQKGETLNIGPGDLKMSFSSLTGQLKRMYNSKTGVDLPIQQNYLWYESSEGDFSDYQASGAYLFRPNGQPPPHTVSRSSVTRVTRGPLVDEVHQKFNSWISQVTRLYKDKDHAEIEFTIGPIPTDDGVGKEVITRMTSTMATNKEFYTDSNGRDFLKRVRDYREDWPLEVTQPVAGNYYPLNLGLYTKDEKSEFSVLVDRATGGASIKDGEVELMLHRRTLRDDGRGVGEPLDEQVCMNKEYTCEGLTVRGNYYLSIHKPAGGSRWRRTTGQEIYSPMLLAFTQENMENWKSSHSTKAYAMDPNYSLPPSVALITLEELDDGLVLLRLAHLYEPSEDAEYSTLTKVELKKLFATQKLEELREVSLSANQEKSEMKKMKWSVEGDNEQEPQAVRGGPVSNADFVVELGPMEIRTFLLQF
Protocol: as §1, §2

[9] = target: T5, α-L-fucosidase (Bos taurus, UniProt Q2KIM0); experiment: Glycosidase inhibition: α-L-fucosidase; assay type: biochemical, Bovine kidney; details: 1 mg/ml; pH 5.5, 20° C
T5 construct: purchased Sigma; host or cells: bovine kidney
T5 sequence (Q2KIM0 23-468): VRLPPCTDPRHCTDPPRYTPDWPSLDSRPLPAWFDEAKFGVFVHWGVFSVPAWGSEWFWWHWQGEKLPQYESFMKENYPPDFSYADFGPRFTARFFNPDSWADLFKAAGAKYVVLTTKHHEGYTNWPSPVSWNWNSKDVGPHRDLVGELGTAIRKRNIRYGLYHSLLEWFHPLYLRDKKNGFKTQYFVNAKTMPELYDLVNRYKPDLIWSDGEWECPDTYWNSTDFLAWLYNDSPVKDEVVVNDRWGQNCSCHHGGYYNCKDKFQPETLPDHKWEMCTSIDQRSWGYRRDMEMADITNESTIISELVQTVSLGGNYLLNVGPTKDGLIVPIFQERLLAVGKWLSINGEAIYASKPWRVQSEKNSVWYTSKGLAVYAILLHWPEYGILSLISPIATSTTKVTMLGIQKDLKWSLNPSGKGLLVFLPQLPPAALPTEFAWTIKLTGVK
Protocol: All enzymes were purchased from Sigma, as were the appropriate p-nitrophenyl substrates. Assays were carried out in microtitre plates. Enzymes were assayed in 0.1M citric acid/0.2M di-sodium hydrogen phosphate (McIlvaine) buffers at the optimum pH for the enzyme. All assays were carried out at 20° C. For screening assays the incubation assay consisted of 10 μl of enzyme solution, 10 μl of inhibitor solution (made up in water at 5 mM) and 50 μl of the appropriate 5 mM p-nitrophenyl substrate (3.57 mM final conc.) made up in McIlvaine buffer at the optimum pH for the enzyme.
as §2

[10] = test system: β-D-glucosidase; experiment: Glycosidase inhibition: β-D-glucosidase; assay type: biochemical, Almonds (Prunus sp.); details: 1 mg/ml; pH 5.0, 20° C
Protocol: as §1, §2

[11] = test system: HCV; experiment: Cell-based HCV infection NS3 protease FRET assay in DMSO-Huh7 cells; set-up: species or system hepatitis C virus (HCV); details: DMSO-Huh7 cells infected with HCV at 0.05 ffu/cell; HCV NS3 protein levels by FRET, day 6 p.i.

T1 sequence (P53341 whole entry): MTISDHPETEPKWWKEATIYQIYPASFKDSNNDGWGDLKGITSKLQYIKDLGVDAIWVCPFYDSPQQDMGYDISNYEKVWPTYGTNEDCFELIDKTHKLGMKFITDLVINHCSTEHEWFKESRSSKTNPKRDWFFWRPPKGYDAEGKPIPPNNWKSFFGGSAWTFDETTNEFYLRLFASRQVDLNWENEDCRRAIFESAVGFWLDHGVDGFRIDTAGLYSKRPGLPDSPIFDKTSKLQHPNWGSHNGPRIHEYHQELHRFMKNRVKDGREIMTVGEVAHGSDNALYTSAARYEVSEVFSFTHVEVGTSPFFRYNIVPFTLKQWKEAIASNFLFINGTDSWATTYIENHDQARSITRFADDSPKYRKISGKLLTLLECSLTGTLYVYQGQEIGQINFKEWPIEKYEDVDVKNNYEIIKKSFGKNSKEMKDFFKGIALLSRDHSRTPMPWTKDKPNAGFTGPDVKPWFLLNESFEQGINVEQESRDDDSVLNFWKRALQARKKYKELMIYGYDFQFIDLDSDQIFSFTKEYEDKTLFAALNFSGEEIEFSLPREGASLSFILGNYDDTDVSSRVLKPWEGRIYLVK
T2 sequence (Q42656 16-378): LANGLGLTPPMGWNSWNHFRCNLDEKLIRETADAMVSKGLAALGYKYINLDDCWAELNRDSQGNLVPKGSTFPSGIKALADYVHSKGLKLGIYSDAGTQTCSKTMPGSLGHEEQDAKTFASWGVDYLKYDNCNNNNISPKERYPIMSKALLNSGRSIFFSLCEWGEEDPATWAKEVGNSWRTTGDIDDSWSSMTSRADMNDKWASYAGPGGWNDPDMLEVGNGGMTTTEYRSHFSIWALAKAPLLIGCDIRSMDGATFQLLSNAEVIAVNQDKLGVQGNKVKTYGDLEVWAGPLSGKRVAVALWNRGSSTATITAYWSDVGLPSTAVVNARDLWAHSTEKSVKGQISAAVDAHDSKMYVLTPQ
T3 sequence (Q653V7 34-885): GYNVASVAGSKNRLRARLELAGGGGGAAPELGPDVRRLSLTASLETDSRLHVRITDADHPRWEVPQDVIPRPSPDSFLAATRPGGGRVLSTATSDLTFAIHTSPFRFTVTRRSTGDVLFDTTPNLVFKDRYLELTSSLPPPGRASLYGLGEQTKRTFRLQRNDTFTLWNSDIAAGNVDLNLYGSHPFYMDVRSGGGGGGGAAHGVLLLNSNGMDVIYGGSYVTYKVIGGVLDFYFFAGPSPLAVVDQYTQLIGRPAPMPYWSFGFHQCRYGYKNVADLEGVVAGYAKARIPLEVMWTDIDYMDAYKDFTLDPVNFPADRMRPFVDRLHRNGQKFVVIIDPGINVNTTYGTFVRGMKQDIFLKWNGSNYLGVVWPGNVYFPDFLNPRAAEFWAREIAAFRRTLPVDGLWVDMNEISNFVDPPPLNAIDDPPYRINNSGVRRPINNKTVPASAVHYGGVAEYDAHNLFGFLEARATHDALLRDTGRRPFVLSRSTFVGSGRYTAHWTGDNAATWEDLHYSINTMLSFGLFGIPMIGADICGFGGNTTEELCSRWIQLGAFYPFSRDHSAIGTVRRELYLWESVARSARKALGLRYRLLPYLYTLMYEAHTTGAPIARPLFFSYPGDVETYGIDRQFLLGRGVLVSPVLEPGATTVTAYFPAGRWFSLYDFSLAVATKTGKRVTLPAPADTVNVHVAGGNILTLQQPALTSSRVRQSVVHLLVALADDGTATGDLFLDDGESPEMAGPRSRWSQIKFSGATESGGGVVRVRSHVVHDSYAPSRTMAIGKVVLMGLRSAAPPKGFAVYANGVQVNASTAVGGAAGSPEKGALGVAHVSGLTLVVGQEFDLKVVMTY

## OC[C@H]1NC[C@H](O)[C@@H](O)[C@@H]1O [Compound 193, 1-deoxynojirimycin, reference compound]
[1]
  % inhibition β-galactosidase: 0%
[2]
  % inhibition α-gluc (yeast): 35%
[3]
  % inhibition α-galactosidase: 0%
[4]
  % inhibition α-gluc (Bacillus): 100%
[5]
  % inhibition Naringinase: 0%
[6]
  % inhibition N-acetyl-β-gluc: 0%
[7]
  % inhibition α-gluc (rice): 100%
[8]
  % inhibition α-mannosidase: 0%
[9]
  % inhibition α-fucosidase: 0%
[10]
  % inhibition β-glucosidase: 64%

## CCCCCCCCCN1C[C@@H](O)[C@@H](O)[C@H](O)[C@H](O)C1 [Compound 794, (3R,4R,5R,6R)-1-nonylazepane-3,4,5,6-tetraol]
[11]
  Ave % inhibition: ++++ (++++: 60-79%)

## OC[C@@H](O)[C@@H]1[C@H](O)[C@H](O)CN1Cc1ccccc1 [Compound 799, (2R,3S,4R)-1-benzyl-2-((S)-1,2-dihydroxyethyl)pyrrolidine-3,4-diol]
[11]
  Ave % inhibition: + (+: ≦19%)

## (1S,2S,3S,6R,7R,7aR)-1,6,7-trihydroxy-3-(hydroxymethyl)hexahydro-1H-pyrrolizin-2-yl methanesulfonate [Compound 635]
[11]
  Ave % inhibition: ++ (++: 20-39%)

## (3R,5S)-5-(acetamidomethyl)-1-butylpyrrolidin-3-yl acetate [Compound 546]
[11]
  Ave % inhibition: ++ (++: 20-39%)

## (3R,5S)-5-(acetamidomethyl)-1-nonylpyrrolidin-3-yl acetate [Compound 547]
[11]
  Ave % inhibition: ++++ (++++: 60-79%)

## ((2S,4S)-4-acetamido-1-nonylpyrrolidin-2-yl)methyl acetate [Compound 332]
[11]
  Ave % inhibition: +++++ (+++++: ≧80%)
